The structures appear in SMILES notation.

Assay in one data set: not given
One may read the logP as the decadic logarithm of the partition coefficient of the neutral form, usually between octanol and water. `OC1(Cn2cncn2)CCCC1Cc1c(F)c(F)c(F)c(F)c1F` (stereo not given) showed a logP of 3.16.
Still for that read-out and setting: then `OC1(Cn2cncn2)CCCC1Cc1cccc(Cl)c1` (stereo not given), with 2.98.
Still for that read-out and setting: in the case of `OC1(Cn2cncn2)CCCC1Cc1ccc(F)cc1F` (stereo not given) it was 2.6; in that of `OC1(Cn2cncn2)CCCC1Cc1ccccc1Cl` (stereo not given), 2.95.
Same read-out and setting: in the case of `OC1(Cn2cncn2)CCCC1Cc1ccc(Cl)cc1` (stereo not given) it was 3.11; in that of `OC1(Cn2cncn2)CCCC1Cc1ccc(Cl)cc1F` (stereo not given), 3.27; in that of `OC1(Cn2cncn2)CCCC1Cc1ccc(C(F)(F)F)cc1` (stereo not given), 3.07.
As to `OC1(Cn2cncn2)CCCC1Cc1cccc(C(F)(F)F)c1` (stereo not given), the logP was 3.07.
Still for that read-out and setting: then `OC1(Cn2cncn2)CCCC1Cc1ccc(Cl)cc1Cl` (stereo not given), with 3.87; and `OC1(Cn2cncn2)CCCC1Cc1ccc(F)cc1` (stereo not given), with 2.39.
On the same count and under the same terms, then `OC1(Cn2cncn2)CCCC1Cc1ccc(F)c(F)c1` (stereo not given), with 2.51; and `OC1(Cn2cncn2)CCCC1Cc1c(F)cccc1F` (stereo not given), with 2.6.
On the same count and under the same terms, in the case of `N#Cc1ccc(CC2CCCC2(O)Cn2cncn2)cc1` (stereo not given) it was 1.7.

The next data set is described as follows: method code SF, from DOI: 10.1021/bk-1995-0606.ch013.
In turn, `CC1(C)CCC(Cc2ccc(Cl)c(O)c2)C1(O)Cn1cncn1` (stereo not given) yielded a logP of 3.16.
Still for that read-out and setting: then `Cc1ccc(CC2CCC(C)(C)C2(O)Cn2cncn2)cc1` (stereo not given), with 3.43; and `CCC1CCC(Cc2ccc(F)cc2)C1(O)Cn1cncn1` (stereo not given), with 3.3.
On the same count and under the same terms, in the case of `CCC1CCC(Cc2ccc(Br)cc2)C1(O)Cn1cncn1` (stereo not given) it was 4.18; in that of `OC1(Cn2cncn2)CCCC1Cc1ccccc1` (stereo not given), 2.26; in that of `Cc1ccc(CC2CCCC2(O)Cn2cncn2)cc1` (stereo not given), 2.71.
Take `CCC1CCC(Cc2ccc(-c3ccccc3)cc2)C1(O)Cn1cncn1` (stereo not given): the log partition coefficient (logP) worked out at 4.83.
Compound `CC1(C)CCC(Cc2ccc(Cl)cc2F)C1(O)Cn1cncn1` (stereo not given) yielded a logP of 3.99.
Same read-out and setting: in the case of `CCC1CCC(Cc2ccc(Cl)cc2)C1(O)Cn1cncn1` (stereo not given) it was 4.02; in that of `CC(C)(C)c1ccc(CC2CCCC2(O)Cn2cncn2)cc1` (stereo not given), 3.97; in that of `OC1(Cn2cncn2)CCCC1Cc1ccc(Br)cc1` (stereo not given), 3.27.
The same measure, in the same setting: in the case of `CCC1CCC(Cc2ccc(Cl)cc2Cl)C1(O)Cn1cncn1` (stereo not given) it was 4.78.
Same read-out and setting: then `OC1(Cn2cncn2)CCCC1Cc1ccc(-c2ccccc2)cc1` (stereo not given), with 3.92.
On to `CC1(C)CCC(Cc2ccc(Br)cc2)C1(O)Cn1cncn1` (stereo not given), for which the logP amounted to 3.99.
Same read-out and setting: in the case of `CCC1CCC(Cc2ccc(C(C)(C)C)cc2)C1(O)Cn1cncn1` (stereo not given) it was 4.88; in that of `CC1(C)CCC(Cc2ccc(-c3ccccc3)cc2)C1(O)Cn1cncn1` (stereo not given), 4.64; in that of `CCCOC/C(=N\c1ccc(Cl)cc1C(F)(F)F)n1ccnc1`, 4.5.

The values are drawn from the SangsterLogP compilation.
